SMILES strings stand for the structures. Like-named read-outs stand apart in the source and are kept apart here.

Common to all, as to set-up: expressed in transfected cells; host or cells: CHO-K1 expressing apoaequorin (CHO-Aeq) with Gqi5; line E2
Assay [1] deals with T1, hEBI2 (Homo sapiens, UniProt P32249). In words: calcium fluorescence (FLIPR). It counts as cell-based. The procedure: If not stated otherwise compounds were dissolved at 10 mM in DMSO or ethanol (cholesterol, 25MDC). Serial dilutions were carried out in 90% DMSO (FLIPR, GTPgS) or assay buffer (binding assay). For cell based assays final DMSO concentrations is kept below 1%.
If not stated otherwise, the same Chinese hamster ovary (CHO) cell line called E2 which was used for the ligand identification was used in these experiments. This cell line is expressing (1) the recombinant human EBI2 receptor, (2) the promiscuous Gqi5 protein as well as (3) apo-aequorin.
Cells were seeded in black/clear bottom, poly-D-Lysine coated 384-well plates at a cell density of 10,000 cells/25 μL/well, using culture medium. Cells were cultured for 24 hours at 37° C./5% CO2. Culture medium was removed and for cell loading, 20 μl per well of loading buffer (Calcium-4 no wash dye) were distributed into the wells and the plates were incubated for 60 min at 37° C. in 5% CO2. With the FLIPR pipettor, 10 μl of the different compounds were added to the cells and the subsequent fluorescent changes monitored for 3 minutes. Using the FLIPR software tool, 2 values of fluorescence calcium responses were exported: Fmax, the fluorescence at the peak and Fbasal corresponding to the value prior to compound injection. From these two values, the calcium response is normalized with respect to the calcium baseline values using dF/F=(Fmax−Fbasal)/Fbasal. The maximum dF/F is called Emax.

Assay [2] concerns the target T1, hEBI2. The assay is described as follows: GTPγS assay on EBI2 membranes. It counts as biochemical. The procedure: (§1) The cell suspension was then homogenized using a Dounce homogenizer (10 strokes) with a driller. After centrifugation at 110000×g for 45 minutes and removal of the supernatant, pellets were resuspended in sucrose buffer (50 mM Tris pH7.2, 250 mM sucrose, 10% glycerol) by vortexing. The suspension was again homogenize using a Dounce homogenizer (10 strokes) and spun at 100000×g for 45 minutes. The supernatant was discarded, the pellet resuspended in sucrose buffer, protein concentration determined, aliquoted and frozen at −80° C. These membrane preparations were used in binding as well as GTPgS assays.
Ten micrograms of EBI2 membranes are dissolved in 40 μl of buffer A (20 mM Hepes pH 7.4, 100 mM NaCl, 1.5 mM MgCl2, Saponin 10 μg/ml) supplemented with 10 μM GDP. After addition of […] scintilation proximity assay (SPA) beads (100 μg/well, Amersham, RPNQ0001) components are gently mixed and incubated at RT for 15 minutes. Twenty microliters of compound diluted in buffer A and 20 μl of GTPγ^35S (Perkin Elmer NEG030X) is added before incubation for one hour at RT. Plates are transferred and counted in a TopCount (Perkin Elmer NXT HTS™) and counts are analysed plotted and to determine half maximal concentrations of activation using standard software (Prism™, GraphPad Software Inc.).

Assay [3] concerns the target T1, hEBI2. The assay is described as follows: [3H] 7a,25DHC radio-ligand binding assay (SPA), IC50 determination. The procedure:
as §1
Lyophilized wheat germ agglutinin scintilation proximity assay (SPA) beads (RPNQ0001) were purchased from GE Healthcare (Buckinghamshire, UK). One vial (500 mg) is reconstituted by adding 5 mL of distilled water to give a final concentration of 100 mg/mL. Reconstituted SPA beads must be stored at 4° C., but must not be frozen. [3H]-7a,25-OHC, was synthesized by reduction of the 7-keto, 25DHC in the presence of 3H-L-selectride.
The SPA assay was performed in a final volume of 50 μl per well in a 384-well polystyrene Opti plate. The components were added into the wells as follows: • 10 μl tested compounds in 50 mM Tris; 100 mM NaCl; 5 mM MgCl2 and 0.1% Cyclodextrine.
Total binding was determined by the addition of 10 μl of 50 mM Tris; 100 mM NaCl; 5 mM MgCl2 and 0.1% Cyclodextrine and non-specific binding was determined by the addition of 10 μl NVP-BYX998-NX-4 (final concentration of 10 μM). • 20 μL of 10 nM final [3H]-BYX998 in assay buffer (50 mM Tris-HCl, 100 mM NaCl, 5 mM MgCl2 and 0.1% Cyclodextrine). • 20 μL of a mixed bead and membrane suspension in assay buffer, in order to get a final concentration of 20 μg membranes/well and 200 μg beads/well.
The plates were sealed and shaken at room temperature for 10 minutes then allowed to stand at room temperature for at least 12 hours. The plates were counted using a Perkin Elmer TopCount reader, each well being counted for 1 minute.
Each IC50 determination was performed with 11 concentrations.
A standard data reduction algorithm was used to calculate the percentage of specific binding in the presence of test compound as follows: ((B−NSB)/(Total−NSB))·100, where B=Binding in the presence of test compound (in cpm) NSB=Non-specific binding in the presence of excess inhibitor (in cpm) Total=Binding in the absence of test compound (in cpm) Curve fitting of the normalized concentration response curves using a four parameter logistic fit is then performed using XLfit (v.2 or v.4, IDBS, Guildford, UK). The equation used is XLfit equation no. […] By default, min is fixed at 0, whereas max is not fixed.

Setting [4] is: 10 nM radioligand, n = 3, read-out: [^3H] 7a,25DHC Binding IC50.

T1 sequence (P32249 whole entry): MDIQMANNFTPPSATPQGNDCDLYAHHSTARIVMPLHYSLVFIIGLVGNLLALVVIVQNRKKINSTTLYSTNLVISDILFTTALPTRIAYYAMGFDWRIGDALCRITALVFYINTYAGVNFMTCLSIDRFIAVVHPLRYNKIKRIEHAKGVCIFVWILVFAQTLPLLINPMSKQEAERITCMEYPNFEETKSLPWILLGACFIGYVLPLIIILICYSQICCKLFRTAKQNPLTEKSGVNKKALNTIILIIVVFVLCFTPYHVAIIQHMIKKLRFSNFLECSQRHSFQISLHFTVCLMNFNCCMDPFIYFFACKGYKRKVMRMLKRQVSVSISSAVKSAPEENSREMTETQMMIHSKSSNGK

On to `C[C@H](CCCC(C)(C)O)[C@H]1CC[C@H]2[C@@H]3[C@H](O)C=C4C[C@@H](O)CC[C@]4(C)[C@H]3CC[C@]12C` [7a,25DHC, cholest-5-ene-3b,7a,25-triol], for which the EC50 on hEBI2 [1] is 1.9 nM; at hEBI2 [2], 7.5 nM. Also, the IC50 on hEBI2 [3] (setting [4]) was found to be 70.4 nM.
Turning to `CC(CO)CCC[C@@H](C)[C@H]1CC[C@H]2[C@@H]3[C@H](O)C=C4C[C@@H](O)CC[C@]4(C)[C@H]3CC[C@]12C` (stereo partly drawn) [7a,27DHC, cholest-5-ene-3b,7a,27-triol], the EC50 at hEBI2 [1] stood at 4.8 nM; at hEBI2 [2], 5.1 nM. Besides, the half-inhibitory concentration (IC50) at hEBI2 [3] turned out to be 362 nM.
For `C[C@H](CCCC(C)(C)O)[C@H]1CC[C@H]2[C@@H]3[C@@H](O)C=C4C[C@@H](O)CC[C@]4(C)[C@H]3CC[C@]12C` [7b,25DHC, cholest-5-ene-3b,7b,25-triol], the EC50 at hEBI2 [1] (n = 3-4, read-out: FLIPR EC50) is 121 nM; on hEBI2 [2] (n = 3-4, read-out: GTPgS EC50), 221 nM. Moreover, the half-maximal inhibitory concentration (IC50) on hEBI2 [3] (setting [4]) is 2630 nM.

As usually defined, the EC50 is the concentration at which the effect is half-maximal. Broadly, the IC50 is the concentration that inhibits the measured activity by half.

Values taken from patent publication US8497075B2, “Methods of identifying a modulator that inhibits the binding between Epstein-Barr virus induced receptor 2 and cholesterol derived ligands” (Novartis AG, priority 2008, dated 2013).
